The record followed here is publication PMC12424289, “Programmable Nanostructure Assembly of a Paclitaxel Derivative Enables Tunable Anticancer Therapy via Hydrogen Bond Engineering” (ACS Nano, 2025).

The nature of the data set: Serum biochemistry safety assessment. Conditions: mice, iv 10 mg·kg^–1 PTX equivalent, q.o.d. × 5, day 10; PTP versus PTP@PEG. In kind it is in vivo, Balb/c mice. The method, then: In a related safety assessment, female Balb/c mice (18–22 g, n = 3) were fasted for 12 h, then treated intravenously with either 5% G, PTX solution, PTP, or PTP@PEG using the previously described dosing regimen (10 mg·kg^–1 PTX equivalent, q.o.d. × 5). On day 10, blood was collected and then processed to obtain serum by centrifugation (2000 rpm, 10 min, 4 °C). Serum samples were subsequently analyzed for biochemical markers using a Chemray 240 automated analyzer (Rayto Life and Analytical Sciences Co., Ltd., China).

Take `CC(=O)O[C@H]1C(=O)[C@@]2(C)[C@H]([C@H](OC(=O)c3ccccc3)[C@]3(O)C[C@H](OC(=O)[C@H](OC(=O)CCP(=O)(O)O)[C@@H](NC(=O)c4ccccc4)c4ccccc4)C(C)=C1C3(C)C)[C@]1(OC(C)=O)CO[C@@H]1C[C@@H]2O` [PTP, PTX-2’–OOC-P]: the “blood urea nitrogen (BUN) and creatinine (CREA) levels” value was “comparable”.
